Columns and labels:
W138VA cells = test: proliferation assay, crystal violet staining; type: cell-based, human; details: 0, 1, 5, 10, 25 and 50 μM; 4 days
Method: The effects of black tea polyphenols on proliferation of W138 and W138VA cells was examined. W138 diploid fibroblasts have a finite life span whereas the virally transformed W138VA cells are cancerous in nude mice. Both cell types were grown in 24 well plates in the presence of increasing doses of the theaflavin polyphenols, TF-1, TF-2 and TF-3 (0, 1, 5, 10, 25 and 50 μM). Viable cells were stained with crystal violet 4 days after plating. A decrease in staining intensity relative to the untreated control cells were indicative of growth inhibition by the polyphenol compound. Of the three theaflavin polyphenols tested, only TF-2 had significant effects on cells growth. […] The IC50 value for TF-2 and growth inhibition of W138VA cells was estimated to be 3 μM.
Normal human W138 (cell strain AG06814E, PDL=16) and the SV40 virally transformed W138 cells (cell strain AG07217) were obtained from Coriell Institute for Medical Research (Camden, N.J.). Human colon cancer cells, Caco-2 (ATCC #HTB-37) and the matched normal colon cells CCD-33Co (ATCC #CRL-1539) were obtained from the American Type Culture Collection (Rockville, Md.). Cells were cultured in Dulbecco's medium containing 10% fetal bovine serum at 37° C., 5% CO2. […] Cell growth was measured by counting viable cells using the Trypan Blue exclusion method. […] Proliferation was monitored by crystal-violet staining. […]

[1] = test system: human lymphoid leukemia cells and human stomach tumor cells; details: Hibasami et al. 1998; cited from earlier work
Cox-2 gene expression = Cox-2 gene expression in Caco-2 cells (Northern blot / RT-PCR); type: cell-based, human; details: TF-2 effects seen at 50 to 100 μM
Method: All three polyphenols were tested, TF-1, TF-2 and TF-3.
The effect of TF-2 on the time course of Cox-2 gene expression in Caco-2 cells was then examined. Cox-2 mRNA was detectable in quiescent Caco-2 cells, consistent with the finding that colon cancer cells have elevated Cox-2 gene expression. Fresh serum induced a 2- to 4-fold increase in Cox-2 expression in Caco-2 cells as early as 4 hours after stimulation; this was expected because of the known stimulatory effects of serum factors.
Confluent cultures were serum-deprived for 48 hours. Cells were then treated with 10% fresh fetal bovine serum in the presence or absence of the black tea extracts (10, 20, 40, 50, 80 or 100 μM) to initiate the progression of the cell cycle. Cells were harvested at either 4 or 12 hours for total RNA isolation. Total RNA samples were resolved by electrophoresis on 1% agarose-formaldehyde gel (6 μg per lane) and transferred onto a nylon membrane. Northern blot analysis was performed.
Confluent cultures were first serum-deprived for 48 hours and then stimulated with 10% fresh fetal bovine serum in the absence or presence of black tea extracts. Cells were harvested and total RNA was prepared using a kit (QIAGEN, Chatsworth, Calif.). Total RNA (1 μg) from each cell sample was reverse transcribed into cDNA by incubating with RNase H reverse transcriptase (Gibco BRL, Grand Island, N.Y.) using oligo(dT)12-18 as primer. For PCR amplification, gene specific primers were designed. The sequences of the sense and antisense primers for various genes were: […]
PCR was performed under conditions that allowed the amounts of PCR products to be proportional to the amounts of RNA input. The housekeeping gene, glyceraldehyde-3-phosphate dehydrogenase (GAPDH) was used as an internal control. The PCR products were analyzed by electrophoresis on 1% agarose gel containing 0.5 μg/ml ethidium bromide.

[2] = test system: human A431 carcinoma cells; details: compared with EGCG; Liang et al. 1999; cited from earlier work
EGF and PDGF receptors = details: compared with EGCG; Liang et al. 1999; cited from earlier work
[3] = test system: Caco-2 colorectal cancer cells, Hs578T breast cancer cells, and SV40-transformed W138 cells; details: Chen et al. 1998; cited from earlier work
normal counterparts = details: Chen et al. 1998; cited from earlier work

Row | Compound | differential growth inhibition of W138 versus W138VA cells (W138VA cells) | apoptosis in human lymphoid leukemia cells and human stomach tumor cells [1] | Cox-2 gene expression in Caco-2 cells (Cox-2 gene expression) | inhibiting the growth of human A431 carcinoma cells [2] | reducing autophosphorylation of EGF and PDGF receptors (EGF and PDGF receptors) | growth of human tumor cells [3] | growth of normal counterparts (normal counterparts)
1 | O=c1c(O)cc([C@H]2Oc3cc(O)cc(O)c3C[C@H]2O)cc2c([C@H]3Oc4cc(O)cc(O)c4C[C@H]3O)cc(O)c(O)c12 [TF-1, theaflavin] | did not exhibit this differential growth inhibition | can induce apoptosis | failed to affect Cox-2 gene expression | – | – | – | –
2 | O=C(O[C@@H]1Cc2c(O)cc(O)cc2O[C@@H]1c1cc(O)c(=O)c2c(O)c(O)cc([C@H]3Oc4cc(O)cc(O)c4C[C@H]3OC(=O)c3cc(O)c(O)c(O)c3)c2c1)c1cc(O)c(O)c(O)c1 [TF-3, theaflavin-3,3′-digallate] | did not exhibit this differential growth inhibition | can induce apoptosis | failed to affect Cox-2 gene expression | as potent as EGCG | as potent as EGCG | – | –
3 | (−)epigallocatechin gallate [EGCG] | – | – | suppressed Cox-2 gene expression it was not as potent as TF-2 | – | – | inhibits growth | little or no inhibitory effect
